Results reported in US20250283049A1, “AGENT FOR CULTURING ORGANOID IN ABSENCE OF EXTRACELLULAR MATRIX” (KEIO UNIVERSITY, priority 2022, published 2025).

Columns and labels:
[1] = test system: human small intestine-derived organoids; experiment: Immunostaining for localization of YAP and Ki67; type: cell-based; conditions: 10 μM Lats-IN; in both presence and absence of Matrigel; approximately 10% without Lats-IN
Method: Human small intestine-derived organoids and human large intestine-derived organoids were cultured in the absence and presence of Matrigel (registered trademark) and in the absence and presence of a LATS kinase inhibitor (final concentration: 10 μM) in the same manner as in Experimental Example 2. Subsequently, immunostaining was performed to confirm the localization of YAP. In addition, Ki67, a marker for cell proliferation, was detected to confirm proliferating cells.
The fields of view in the second, third, and fourth panels from the top correspond to the area enclosed in the square in the uppermost panel.
The fields of view in the second, third, and fourth panels from the top correspond to the area enclosed in the square in the uppermost panel. The scale bar represents 50 μm. […]
FIG. 7 is a graph summarizing the results of FIGS. 5 and 6. As a result, in both the presence and absence of Matrigel (registered trademark), in the absence of Lats-IN, YAP was localized in the cytoplasm, and when the number of Ki67-positive cells, which indicates cell proliferation, was counted, the percentage of Ki67-positive cells was approximately 10% of the total cells. In contrast, in both the presence and absence of Matrigel (registered trademark), in the presence of Lats-IN, the number of cells in which YAP was localized in the nucleus was counted. […]

[2] = test system: human large intestine-derived organoids dissociated into single cells; experiment: Organoid formation from single cells (Examination 2); type: cell-based; conditions: absence of Matrigel, presence of TRULI 10 μM
Method: After dissociating human large intestine-derived organoids into single cells, organoid formation from the single cells was observed.
FIG. 27 is a graph showing the results of organoid formation from the single cells in the presence (+) or absence (−) of Matrigel (registered trademark) and in the absence (−) or presence (+, final concentration: 10 μM) of TRULI. […] In addition, the vertical axis of the graph represents the percentage (%) of cells that formed organoids among the seeded single cells.

[3] = test system: immunodeficient mouse (NOG mouse) colon; experiment: Orthotopic xenotransplantation of organoids established in absence of Matrigel; type: in vivo; conditions: organoids established in absence of Matrigel and presence of TRULI, 1×10^7 cells
From the text: The human colon-derived organoids established in the absence of Matrigel (registered trademark) and in the presence of TRULI in Experimental Example 22 were orthotopically xenotransplanted into an immunodeficient mouse (NOG mouse) to examine whether they would engraft.
FIG. 31 is a schematic view explaining an overview of this experimental example. The human colon-derived organoids established in the absence of Matrigel (registered trademark) and in the presence of TRULI were electroporated with a green fluorescent protein (GFP) expression vector to obtain GFP-labeled human colon-derived organoids.
Subsequently, the GFP-labeled human colon-derived organoids were dissociated into single cells and then pre-cultured for 4 days in a medium supplemented with 2% Matrigel (registered trademark) or 2% collagen gel (50% type IA, 50% type IC). […]
Subsequently, the total cell number of the pre-cultured GFP-labeled human colon-derived organoids was counted, and the cells were suspended in Advanced DMEM/F12 medium supplemented with 10% (vol/vol) Matrigel (registered trademark) or type IA collagen. […]

[4] = test system: human small intestine-derived organoids; experiment: Niche factor removal; continuous passaging P0 to P16 in absence of Matrigel; type: cell-based; conditions: Lats-IN 10 μM
Method: FIG. 15 is a graph showing the results of measuring the proliferation of human small intestine-derived organoids cultured in the absence of Matrigel (registered trademark), in the absence or presence of Lats-IN (final concentration: 10 μM), under conditions in which all WRENAIF niche factors were added, and under conditions in which some of these niche factors were removed. In FIG. 15, P0 to P16 indicate passage numbers 0 to 16. In addition, the dark colors in the graph indicate successful passaging, while the light colors indicate unsuccessful passaging.

[5] = test system: crypts isolated from human large intestine-derived tissue; experiment: Organoid establishment from isolated crypts in absence of Matrigel; time-course ATP and passaging; type: cell-based; conditions: Lats-IN 10 μM, without Lats-IN died after second passage
Method: Crypts were isolated from human small intestine- and large intestine-derived tissues. The isolated crypts were cultured in the absence of Matrigel (registered trademark) and in the absence or presence of Lats-IN (final concentration: 10 μM).
FIG. 10 is a graph showing the results of a time-course measurement of proliferation of the crypts isolated from the human large intestine-derived tissue over time. The cell proliferation was measured by measuring ATP using a commercially available kit (product name “CellTiter-Glo 3D,” Promega Corporation). The vertical axis of the graph represents luminescence intensity (relative value) indicating the amount of ATP present.

What does the source list for `O=C(N=c1sccn1Cc1ccccc1)c1c[nH]c2ncccc12` [Lats-IN]?
percentage of Ki67-positive cells [1]: ≥ 50 % of the total cells; organoid formation from single cells [2]: proliferated from single cells and formed organoids; engraftment of human colon-derived organoids established with TRULI [3]: could engraft; continuous passaging in medium lacking any of the WRENAIF niche factors [4]: continuous passaging was not possible; passaging and proliferation of isolated crypts (organoid establishment) [5]: able to undergo passage almost continuously without cessation of cell proliferation
